Experimental data from ChEMBL document CHEMBL1122135, “Modifications of primaquine as antimalarials. 3. 5-Phenoxy derivatives of primaquine” (J Med Chem, 1982).

Assays:
Mus musculus [1] = assay: Antimalarial activity was determined in Plasmodium berghei infected mice (Mus musculus) at 80 mg/kg dose; type: functional
Plasmodium cynomolgi [2] = assay: Cures in Plasmodium cynomolgi infected rhesus monkey at 10 mg/kg, n=1; type: functional
Mus musculus [3] = assay: Antimalarial activity was determined in Plasmodium berghei infected mice (Mus musculus) at 20 mg/kg dose; type: functional; design: unit not given beside the values
Mus musculus [4] = assay: Antimalarial activity was determined in Plasmodium berghei infected mice (Mus musculus) at 160 mg/kg dose; type: functional
Plasmodium cynomolgi [5] = assay: Cures in Plasmodium cynomolgi infected rhesus monkey at 0.75 mg/kg, n=6; type: functional
Plasmodium cynomolgi [6] = assay: Cures in Plasmodium cynomolgi infected rhesus monkey at 0.25 mg/kg, n=1; type: functional
Mus musculus [7] = assay: Antimalarial activity was determined in Plasmodium berghei infected mice (Mus musculus) at 40 mg/kg dose; type: functional; design: unit not given beside the values
Plasmodium cynomolgi [8] = assay: Cures in Plasmodium cynomolgi infected rhesus monkey at 1 mg/kg, n=3; type: functional
Mus musculus [9] = species on record: Mus musculus; assay: Number of mice (Mus musculus) survived after 60 days of post infection with Plasmodium berghei; type: functional
Mus musculus [10] = assay: (§1) Antimalarial activity was determined in Plasmodium berghei infected mice (Mus musculus) at 320 mg/kg dose; type: functional; design: unit not given beside the values
Plasmodium cynomolgi [11] = assay: Cures in Plasmodium cynomolgi infected rhesus monkey at 0.5 mg/kg; n=2; type: functional
Plasmodium cynomolgi [12] = assay: Cures in Plasmodium cynomolgi infected rhesus monkey at 1 mg/kg, n=1; type: functional
Mus musculus [13] = assay: Antimalarial activity was determined in Plasmodium berghei infected mice (Mus musculus) at 640 mg/kg dose; type: functional
Plasmodium cynomolgi [14] = assay: Cures in Plasmodium cynomolgi infected rhesus monkey at 3.16 mg/kg, n=2; type: functional
Mus musculus [15] = assay: Number of mice (Mus musculus) survived after 60 days of post infection with Plasmodium berghei at a dose of 40 mg/kg; type: functional
Mus musculus [16] = assay: Number of mice (Mus musculus) survived after 60 days of post infection with Plasmodium berghei at a dose of 160 mg/kg; type: functional
Mus musculus [17] = assay: Number of toxic death was determined in Plasmodium berghei infected mice (Mus musculus) at 320 mg/kg dose; type: ADME, organism-based; design: dose 320 mg/kg; conditions: in vivo
Mus musculus [18] = assay: Number of mice (Mus musculus) survived after 60 days of post infection with Plasmodium berghei at a dose of 20 mg/kg; type: functional
Mus musculus [19] = assay: Number of mice (Mus musculus) survived after 60 days of post infection with Plasmodium berghei at a dose of 80 mg/kg; type: functional
Mus musculus [20] = assay: Number of toxic death was determined in Plasmodium berghei infected mice (Mus musculus) at 640 mg/kg dose; type: ADME, organism-based; design: dose 640 mg/kg; conditions: in vivo
Mus musculus [21] = assay: Antimalarial activity was determined in Plasmodium berghei infected mice (Mus musculus) at 10 mg/kg dose; type: functional
Mus musculus [22] = assay: Number of mice (Mus musculus) survived after 60 days of post infection with Plasmodium berghei at a dose of 640 mg/kg; type: functional
Mus musculus [23] = assay: Number of mice (Mus musculus) survived after 60 days of post infection with Plasmodium berghei at a dose of 320 mg/kg; type: functional
Plasmodium cynomolgi [24] = assay: Cures in Plasmodium cynomolgi infected rhesus monkey at 3.16 mg/kg, n=1; type: functional
Plasmodium cynomolgi [25] = assay: Cures in Plasmodium cynomolgi infected rhesus monkey at 0.5 mg/kg, n=1; type: functional
Mus musculus [26] = assay: Number of mice (Mus musculus) survived after 60 days of post infection with Plasmodium berghei at a dose of 10 mg/kg; type: functional
Plasmodium cynomolgi [27] = assay: Cures in Plasmodium cynomolgi infected rhesus monkey at 0.125 mg/kg, n=1; type: functional
Plasmodium cynomolgi [28] = assay: Cures in Plasmodium cynomolgi infected rhesus monkey at 0.25 mg/kg, n=5; type: functional
Mus musculus [29] = assay: as §1; type: functional
Plasmodium cynomolgi [30] = assay: Cures in Plasmodium cynomolgi infected rhesus monkey at 1 mg/kg, n=2; type: functional
Plasmodium cynomolgi [31] = assay: Cures in Plasmodium cynomolgi infected rhesus monkey at 0.316 mg/kg, n=4; type: functional
Plasmodium cynomolgi [32] = assay: Cures in Plasmodium cynomolgi infected rhesus monkey at 0.316 mg/kg, n=2; type: functional
Plasmodium cynomolgi [33] = assay: Number of cures in Plasmodium cynomolgi infected rhesus monkey at 0.25 mg/kg, n=8; type: functional
Plasmodium cynomolgi [34] = assay: Cures in Plasmodium cynomolgi infected rhesus monkey at 0.5 mg/kg, n=5; type: functional
Plasmodium cynomolgi [35] = assay: Cures in Plasmodium cynomolgi infected rhesus monkey at 0.125 mg/kg; n=5; type: functional
Plasmodium cynomolgi [36] = assay: Cures in Plasmodium cynomolgi infected rhesus monkey at 0.5 mg/kg, n=12; type: functional
Mus musculus [37] = assay: Number of toxic death was determined in Plasmodium berghei infected mice (Mus musculus) at 160 mg/kg dose; type: ADME, organism-based; design: dose 160 mg/kg; conditions: in vivo
Plasmodium cynomolgi [38] = assay: Cures in Plasmodium cynomolgi infected rhesus monkey at 0.75 mg/kg, n=9; type: functional

For `COc1cc(NC(C)CCCN)c2ncccc2c1Oc1ccc(Cl)cc1` (stereo not given), the “Delta MST” value (Mus musculus [1]) was 5.5, the Cures (Plasmodium cynomolgi [2]) was 1 and the “Delta MST” value (Mus musculus [3]) was 0.7. The “Delta MST” value (Mus musculus [4]) was 7.1, the Cures (Plasmodium cynomolgi [5]) was 5 and the Cures (Plasmodium cynomolgi [6]) was 0. For the same compound, the “Delta MST” value (Mus musculus [7]) was 4.7, the Cures (Plasmodium cynomolgi [8]) was 3 and the Cures (Mus musculus [9]) was 2. For the same compound, the “Delta MST” value (Mus musculus [10]) was 8.1 and the Cures (Plasmodium cynomolgi [11]) was 0.

With `COc1ccc(Oc2c(OC)cc(NC(C)CCCN)c3ncccc23)cc1` (stereo not given) the “Delta MST” value (Mus musculus [1]) was 1.6, the Cures (Plasmodium cynomolgi [2]) was 1 and the Cures (Plasmodium cynomolgi [12]) was 0. For the same compound, the “Delta MST” value (Mus musculus [3]) was 0.4, the Cure (Mus musculus [13]) was 4 and the “Delta MST” value (Mus musculus [4]) was 6. For the same compound, the “Delta MST” value (Mus musculus [7]) was 0.4 and the “Delta MST” value (Mus musculus [10]) was 8.6.

In the case of `COc1cc(NC(C)CCCN)c2ncccc2c1Oc1ccc(Cl)cc1Cl` (stereo not given), the “Delta MST” value (Mus musculus [1]) is reported as 0.8, the Cures (Plasmodium cynomolgi [2]) is reported as 1 and the “Delta MST” value (Mus musculus [3]) is reported as 0.4. The Cures (Plasmodium cynomolgi [14]) was 2, the “Delta MST” value (Mus musculus [13]) was 10.4 and the “Delta MST” value (Mus musculus [4]) was 2.2. The “Delta MST” value (Mus musculus [7]) was 0.4, the Cures (Plasmodium cynomolgi [8]) was 0 and the “Delta MST” value (Mus musculus [10]) was 4.4.

In the case of `COc1cc(NC(C)CCCN)c2nccc(C)c2c1Oc1ccccc1` (stereo not given), the Cures (Mus musculus [15]) is reported as 3, the Cures (Mus musculus [16]) is reported as 4 and the Toxic deaths (Mus musculus [17]) is reported as 3. The Cures (Mus musculus [18]) was 4, the Cures (Mus musculus [19]) was 4 and the Toxic deaths (Mus musculus [20]) was 2. The “Delta MST” value (Mus musculus [21]) was 8.7.

With `COc1cc(NC(C)CCCN)c2nccc(C)c2c1Oc1cc(C(F)(F)F)cc(C(F)(F)F)c1` (stereo not given) the Cures (Mus musculus [15]) was 3, the Cures (Mus musculus [16]) was 5 and the “Delta MST” value (Mus musculus [3]) was 4.3. It also gave a Cures (Mus musculus [19]) of 5, a Cures (Mus musculus [22]) of 5 and a Cures (Mus musculus [23]) of 5. For the same compound, the “Delta MST” value (Mus musculus [21]) was 1.7.

In the case of `COc1cc(NC(C)CCCN)c2ncccc2c1Oc1cc(C(F)(F)F)cc(C(F)(F)F)c1` (stereo not given), the Cures (Plasmodium cynomolgi [24]) is reported as 1, the “Delta MST” value (Mus musculus [1]) is reported as 0.3 and the Cures (Plasmodium cynomolgi [2]) is reported as 1. The Cures (Plasmodium cynomolgi [12]) was 0, the “Delta MST” value (Mus musculus [3]) was 0.7 and the “Delta MST” value (Mus musculus [13]) was 7.9. The “Delta MST” value (Mus musculus [4]) was 1.5, the “Delta MST” value (Mus musculus [7]) was 0.3 and the “Delta MST” value (Mus musculus [10]) was 6.3.

`COc1cc(NC(C)CCCN)c2ncccc2c1Oc1ccc(OC(F)(F)F)cc1` (stereo not given) was tested, and the “Delta MST” value (Mus musculus [1]) was -0.3, the Cures (Plasmodium cynomolgi [2]) was 1 and the Cures (Plasmodium cynomolgi [12]) was 0. The “Delta MST” value (Mus musculus [3]) was -0.3, the Toxic deaths (Mus musculus [20]) was 1 and the “Delta MST” value (Mus musculus [4]) was 0.5. For the same compound, the “Delta MST” value (Mus musculus [7]) was -0.3 and the “Delta MST” value (Mus musculus [10]) was 0.7.

Compound `COc1cc(NC(C)CCCN)c2ncccc2c1Oc1ccc(NC(C)=O)cc1` (stereo not given) has a Cures (Plasmodium cynomolgi [12]) of 0 and a Cures (Plasmodium cynomolgi [25]) of 0.

In the case of `COc1cc(NC(C)CCCN)c2nccc(C)c2c1Oc1ccc(F)c(C(F)(F)F)c1` (stereo not given), the Cures (Mus musculus [15]) is reported as 5, the Cures (Mus musculus [16]) is reported as 5 and the Cures (Mus musculus [18]) is reported as 1. The Cures (Mus musculus [19]) was 5, the Cures (Mus musculus [22]) was 5 and the Cures (Mus musculus [23]) was 5. For the same compound, the Cures (Mus musculus [26]) was 1.

With `COc1cc(NC(C)CCCN)c2ncccc2c1Oc1cccc(C(F)(F)F)c1` (stereo not given) the “Delta MST” value (Mus musculus [1]) was 4.1, the Cures (Plasmodium cynomolgi [12]) was 1 and the Cures (Plasmodium cynomolgi [27]) was 0. For the same compound, the “Delta MST” value (Mus musculus [3]) was 0.5, the Cures (Mus musculus [13]) was 5 and the “Delta MST” value (Mus musculus [4]) was 7.1. The “Delta MST” value (Mus musculus [7]) was 1.3, the “Delta MST” value (Mus musculus [10]) was 13.5 and the Cures (Plasmodium cynomolgi [28]) was 3. For the same compound, the Cures (Plasmodium cynomolgi [11]) was 2.

For `COc1cc(NC(C)CCCN)c2ncc(C)cc2c1Oc1ccc(F)c(C(F)(F)F)c1` (stereo not given), the “Delta MST” value (Mus musculus [1]) was 4, the “Delta MST” value (Mus musculus [3]) was 5.9 and the Toxic deaths (Mus musculus [20]) was 1. The “Delta MST” value (Mus musculus [4]) was 5, the “Delta MST” value (Mus musculus [7]) was 9.9 and the “Delta MST” value (Mus musculus [10]) was 4.

`COc1cc(NC(C)CCCN)c2ncccc2c1Oc1ccc(Cl)c(Cl)c1` (stereo not given) was tested, and the “Delta MST” value (Mus musculus [1]) was 0.4, the Cures (Plasmodium cynomolgi [2]) was 1 and the “Delta MST” value (Mus musculus [3]) was 1.2. The Cures (Plasmodium cynomolgi [14]) was 2, the Cures (Mus musculus [13]) was 1 and the Cures (Mus musculus [29]) was 1. The “Delta MST” value (Mus musculus [4]) was 6, the “Delta MST” value (Mus musculus [7]) was 0.8 and the Cures (Plasmodium cynomolgi [8]) was 1.

For `COc1cc(NC(C)CCCN)c2ncccc2c1Oc1ccccc1` (stereo not given), the “Delta MST” value (Mus musculus [1]) was 1.7, the “Delta MST” value (Mus musculus [3]) was 0.3 and the “Delta MST” value (Mus musculus [4]) was 5.1. For the same compound, the “Delta MST” value (Mus musculus [7]) was 1.5, the Cures (Mus musculus [9]) was 2 and the “Delta MST” value (Mus musculus [10]) was 7.5.

For `COc1cc(NC(C)CCCN)c2nccc(C)c2c1` (stereo not given), the Toxic deaths (Mus musculus [20]) was 1, the “Delta MST” value (Mus musculus [4]) was 9 and the Cures (Plasmodium cynomolgi [30]) was 2. The Cures (Plasmodium cynomolgi [31]) was 0 and the “Delta MST” value (Mus musculus [10]) was 10.

In the case of `COc1cc(NC(C)CCCN)c2ncccc2c1Oc1ccc(F)c(C(F)(F)F)c1` (stereo not given), the “Delta MST” value (Mus musculus [1]) is reported as 3.4, the Cures (Plasmodium cynomolgi [12]) is reported as 1 and the “Delta MST” value (Mus musculus [3]) is reported as -0.2. For the same compound, the Cures (Mus musculus [13]) was 2, the “Delta MST” value (Mus musculus [4]) was 4.6 and the Cures (Plasmodium cynomolgi [32]) was 2. The “Delta MST” value (Mus musculus [7]) was 0.8 and the “Delta MST” value (Mus musculus [10]) was 12.2.

For `COc1cc(NC(C)CCCN)c2ncccc2c1Oc1ccc(F)cc1` (stereo not given), the “Delta MST” value (Mus musculus [1]) was 5.7, the Cures (Plasmodium cynomolgi [33]) was 3 and the “Delta MST” value (Mus musculus [4]) was 7.5. For the same compound, the Cures (Plasmodium cynomolgi [34]) was 5, the “Delta MST” value (Mus musculus [7]) was 2.1 and the Cures (Mus musculus [9]) was 5. The “Delta MST” value (Mus musculus [10]) was 8.9 and the Cures (Plasmodium cynomolgi [35]) was 0.

In the case of `COc1cc(NC(C)CCCN)c2ncccc2c1` (stereo not given) [PRIMAQUINE], the “Delta MST” value (Mus musculus [1]) is reported as 9.4, the Toxic deaths (Mus musculus [17]) is reported as 5 and the “Delta MST” value (Mus musculus [3]) is reported as 4. The Cures (Plasmodium cynomolgi [33]) was 0, the Cures (Plasmodium cynomolgi [36]) was 10 and the Toxic deaths (Mus musculus [20]) was 5. For the same compound, the Cures (Plasmodium cynomolgi [32]) was 0, the “Delta MST” value (Mus musculus [7]) was 5 and the Toxic deaths (Mus musculus [37]) was 2. For the same compound, the Cures (Plasmodium cynomolgi [38]) was 9.
